In PubChem BioAssay (NCI):
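Growth conditions: 96-well plates. Treatment: test compound, 48 hours, 5 concentrations. Analysis: linear interpolation between bracketing concentrations; unreached endpoints set to highest concentration. The concentration for full growth arrest is given as TGI.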

Assays:
Test in all cases: NCI tumour cell line growth inhibition, 48 h
[1] = system: OVCAR-5 ovarian
[2] = system: OVCAR-8 ovarian
[3] = system: SF-539 CNS
[4] = system: DMS 114 small cell lung
[5] = system: SF-268 CNS
[6] = system: HCT-15 colon
[7] = system: SN12C renal
[8] = system: LOX IMVI melanoma
[9] = system: OVCAR-4 ovarian
[10] = system: CAKI-1 renal
[11] = system: TK-10 renal
[12] = system: SR leukemia
[13] = system: LXFL 529 NSCLC
[14] = system: U251 CNS
[15] = system: NCI-H460 lung
[16] = system: COLO 205 colon
[17] = system: SK-MEL-5 melanoma
[18] = system: SNB-78 CNS
[19] = system: RXF 393 renal
[20] = system: NCI-H23 lung
[21] = system: EKVX NSCLC
[22] = system: SNB-75 CNS
[23] = system: A549 NSCLC
[24] = system: SF-295 CNS
[25] = system: SNB-19 CNS
[26] = system: IGROV1 ovarian
[27] = system: NCI-H226 lung
[28] = system: SW-620 colon
[29] = system: DMS 273 small cell lung
[30] = system: MALME-3M melanoma
[31] = system: M14 melanoma
[32] = system: HL-60(TB) leukemia
[33] = system: K-562 leukemia
[34] = system: HOP-62 NSCLC
[35] = system: CCRF-CEM leukemia
[36] = system: M19-MEL melanoma
[37] = system: UACC-257 melanoma
[38] = system: RPMI-8226 leukemia
[39] = system: HCT-116 colon
[40] = system: XF 498 CNS
[41] = system: 786-0 renal
[42] = system: HCC-2998 colon
[43] = system: SK-OV-3 ovarian
[44] = system: HT29 colon
[45] = system: KM20L2 colon
[46] = system: NCI-H522 lung
[47] = system: HOP-18 NSCLC
[48] = system: HOP-92 NSCLC
[49] = system: DLD-1 colon
[50] = system: UO-31 renal
[51] = system: A498 renal
[52] = system: MOLT-4 leukemia
[53] = system: UACC-62 melanoma
[54] = system: OVCAR-3 ovarian
[55] = system: RXF-631 renal
[56] = system: ACHN renal
[57] = system: SK-MEL-28 melanoma
[58] = system: MCF7 breast
[59] = system: MDA-MB-435
[60] = system: BT-549 breast
[61] = system: KM12 colon
[62] = system: T-47D breast
[63] = system: DU-145 prostate
[64] = system: NCI/ADR-RES ovarian
[65] = system: SK-MEL-2 melanoma
[66] = system: PC-3 prostate
[67] = system: MDA-N
[68] = system: HS 578T breast
[69] = system: MDA-MB-231 breast

## COc1cc2c([C@@H](OC(=O)c3ccccc3)c3ccc4c(c3)OCO4)nccc2c(OC)c1OC
[1]
  TGI: > 100 µM
[2]
  TGI: > 100 µM
[3]
  TGI: > 100 µM
[4]
  TGI: 84.1 µM
[5]
  TGI: > 100 µM
[6]
  TGI: > 100 µM
[7]
  TGI: > 100 µM
[8]
  TGI: > 100 µM
[9]
  TGI: > 100 µM
[10]
  TGI: > 100 µM
[11]
  TGI: > 100 µM
[12]
  TGI: > 100 µM
[13]
  TGI: > 100 µM
[14]
  TGI: > 100 µM
[15]
  TGI: > 100 µM
[16]
  TGI: > 100 µM
[17]
  TGI: 69.8 µM
[18]
  TGI: > 100 µM
[19]
  TGI: 85.3 µM
[20]
  TGI: > 100 µM
[21]
  TGI: > 100 µM
[22]
  TGI: > 100 µM
[23]
  TGI: > 100 µM
[24]
  TGI: > 100 µM
[25]
  TGI: > 100 µM
[26]
  TGI: > 100 µM
[27]
  TGI: 94.5 µM
[28]
  TGI: > 100 µM
[29]
  TGI: > 100 µM
[30]
  TGI: > 100 µM
[31]
  TGI: > 100 µM
[32]
  TGI: 92.9 µM
[33]
  TGI: > 100 µM
[34]
  TGI: > 100 µM
[35]
  TGI: > 100 µM
[36]
  TGI: > 100 µM
[37]
  TGI: > 100 µM
[38]
  TGI: 51 µM
[39]
  TGI: > 100 µM
[40]
  TGI: 90.9 µM
[41]
  TGI: > 100 µM
[42]
  TGI: > 100 µM
[43]
  TGI: > 100 µM
[44]
  TGI: > 100 µM
[45]
  TGI: > 100 µM
[46]
  TGI: > 100 µM
[47]
  TGI: > 100 µM
[48]
  TGI: > 100 µM
[49]
  TGI: > 100 µM
[50]
  TGI: 24.9 µM
[51]
  TGI: > 100 µM
[52]
  TGI: > 100 µM
[53]
  TGI: > 100 µM
[54]
  TGI: > 100 µM
[55]
  TGI: > 100 µM

## O=S(=O)(O)c1cc(N=Nc2cc(S(=O)(=O)O)c3cccnc3c2O)ccc1/C=C/c1ccc(N=Nc2cc(S(=O)(=O)O)c3cccnc3c2O)cc1S(=O)(=O)O
[1]
  TGI: > 100 µM
[56]
  TGI: > 100 µM
[2]
  TGI: > 100 µM
[3]
  TGI: > 100 µM
[4]
  TGI: > 100 µM
[5]
  TGI: > 100 µM
[57]
  TGI: > 100 µM
[58]
  TGI: > 100 µM
[59]
  TGI: > 100 µM
[6]
  TGI: > 100 µM
[7]
  TGI: > 100 µM
[8]
  TGI: > 100 µM
[9]
  TGI: > 100 µM
[60]
  TGI: > 100 µM
[61]
  TGI: > 100 µM
[10]
  TGI: > 100 µM
[11]
  TGI: > 100 µM
[12]
  TGI: 51.1 µM
[62]
  TGI: > 100 µM
[13]
  TGI: > 100 µM
[63]
  TGI: > 100 µM
[14]
  TGI: > 100 µM
[15]
  TGI: > 100 µM
[16]
  TGI: > 100 µM
[17]
  TGI: > 100 µM
[18]
  TGI: > 100 µM
[19]
  TGI: > 31.6 µM
[20]
  TGI: > 100 µM
[21]
  TGI: > 100 µM
[22]
  TGI: > 100 µM
[64]
  TGI: > 100 µM
[23]
  TGI: > 100 µM
[24]
  TGI: > 100 µM
[65]
  TGI: > 100 µM
[25]
  TGI: > 100 µM
[26]
  TGI: > 100 µM
[27]
  TGI: > 100 µM
[28]
  TGI: > 100 µM
[66]
  TGI: > 100 µM
[29]
  TGI: > 100 µM
[30]
  TGI: > 100 µM
[31]
  TGI: > 100 µM
[32]
  TGI: 56.5 µM
[33]
  TGI: > 89.8 µM
[34]
  TGI: > 100 µM
[35]
  TGI: 52.5 µM
[36]
  TGI: > 100 µM
[37]
  TGI: > 100 µM
[38]
  TGI: > 100 µM
[39]
  TGI: > 100 µM
[40]
  TGI: > 100 µM
[67]
  TGI: > 100 µM
[41]
  TGI: > 100 µM
[42]
  TGI: > 100 µM
[43]
  TGI: > 100 µM
[44]
  TGI: > 100 µM
[45]
  TGI: > 100 µM
[46]
  TGI: > 100 µM
[68]
  TGI: > 100 µM
[47]
  TGI: > 100 µM
[48]
  TGI: > 100 µM
[49]
  TGI: > 100 µM
[50]
  TGI: > 100 µM
[51]
  TGI: > 100 µM
[52]
  TGI: 48.3 µM
[53]
  TGI: > 100 µM
[54]
  TGI: > 100 µM
[69]
  TGI: > 100 µM
[55]
  TGI: > 100 µM

## CCN(CC)Cc1cc(Nc2c3ccccc3nc3c4ccccc4n(C)c23)ccc1O
[1]
  TGI: 21.9 µM
[56]
  TGI: 24 µM
[2]
  TGI: 15.6 µM
[3]
  TGI: 10.9 µM
[4]
  TGI: 19.5 µM
[5]
  TGI: 52.4 µM
[57]
  TGI: 15.3 µM
[6]
  TGI: 22.8 µM
[7]
  TGI: 27.5 µM
[8]
  TGI: 9.1 µM
[9]
  TGI: 27.4 µM
[61]
  TGI: 23.9 µM
[10]
  TGI: 26 µM
[11]
  TGI: 28.2 µM
[13]
  TGI: 14.7 µM
[14]
  TGI: 22.7 µM
[15]
  TGI: 24.5 µM
[16]
  TGI: 17.1 µM
[17]
  TGI: 6.6 µM
[18]
  TGI: 41.2 µM
[19]
  TGI: 25.5 µM
[20]
  TGI: 30.3 µM
[21]
  TGI: 29.7 µM
[22]
  TGI: 27.3 µM
[23]
  TGI: 28.2 µM
[24]
  TGI: 21.8 µM
[65]
  TGI: 36.2 µM
[25]
  TGI: 33.4 µM
[26]
  TGI: 31.2 µM
[27]
  TGI: 57.4 µM
[28]
  TGI: 18.6 µM
[29]
  TGI: 17.9 µM
[30]
  TGI: 27 µM
[31]
  TGI: 3.68 µM
[32]
  TGI: 12.9 µM
[33]
  TGI: 7.65 µM
[34]
  TGI: 24.3 µM
[35]
  TGI: 6.44 µM
[36]
  TGI: 19 µM
[37]
  TGI: 23.3 µM
[38]
  TGI: 15.3 µM
[39]
  TGI: 19.5 µM
[40]
  TGI: 17.1 µM
[41]
  TGI: 14 µM
[43]
  TGI: 31.6 µM
[44]
  TGI: 17.8 µM
[45]
  TGI: 17.3 µM
[46]
  TGI: 6.39 µM
[47]
  TGI: 27.1 µM
[48]
  TGI: 18.9 µM
[49]
  TGI: 21 µM
[50]
  TGI: 22.8 µM
[51]
  TGI: 27.8 µM
[52]
  TGI: 8.47 µM
[53]
  TGI: 17.2 µM
[55]
  TGI: 13.8 µM
